# Patent publication US20220211698A1, “ANTI MALARIAL COMPOUNDS” (INSTITUTO DE MEDICINA MOLECULAR, priority 2020, published 2022)
# Entries after “also recorded” stand apart in the source; their conditions may differ.
# Key:
# [1] = test system: PfUIS3@Pb; assay: Reversal of C4 effect by autophagy inhibitor, PfUIS3@Pb-infected Huh7 cells; assay type: cell-based, P. berghei expressing P. falciparum UIS3; details: 50 μM with 1 μM C4, added 2 h before infection, 24 h post-infection
# Procedure: C4 and Chloroquine were added to the cells 2 h before infection. The effect was analysed at 24 h post-infection using flow cytometry by quantifying the EEFs number in infected cells. Data represent means±SEM. Pooled data from 4 independent experiments are presented. Statistical significance was assessed using the unpaired two-tailed t-test. *** P<0.001, **** P<0.0001.
# To perform the flow cytometry analysis, Huh7 cells were seeded on a 24 well plate (50,000 cells/well) in RPMI and DMEM media respectively. The next day, media was replaced with different compounds (10 μM)/C4 (various conc.)/1 μM C4/1 μM C4+50 μM Chloroquine containing media, as appropriate in different experiments. Cells were then infected with P. bergehi/PfUIS3@Pb parasites and analysed by flow cytometry at 2 h/24 h post infection. DMSO was used as control and Primaquine was used as the positive control. For flow cytometry, infected cells were trypsinized and resuspended in 300 μl of media. 50 μl of each sample were analysed on BD Accuri C6 as described in Hanson et al. Data were analysed using FlowJo software. […]
# [2] = test system: P. berghei; assay: Reversal of C4 effect by autophagy inhibitor, P. berghei-infected Huh7 cells; assay type: cell-based; details: 50 μM with 1 μM C4, added 2 h before infection, 24 h post-infection
# [3] = test system: P. berghei ANKA; assay: P. berghei infection of Huh7 cells (luciferase parasite load / flow cytometry EEF count); assay type: cell-based
# Procedure: (§1) The PHS was performed using Huh7 cells infected with sporozoites from either parasite lines with or without adding each of the compounds, at a concentration of 10 μM, 2 h before sporozoite addition. Infection level was determined either by measuring luminescent levels of the GFP and firefly luciferase-expressing P. berghei ANKA (676m1cl1), (obtained from the Leiden Malaria Research Group) or the number of GFP-positive infected cells by flow cytometry, representing Plasmodium exo-erythrocytic form, EEF, (as PfUIS3@Pb parasite line express GFP).
# (§2) To perform the flow cytometry analysis, Huh7 cells were seeded on a 24 well plate (50,000 cells/well) in RPMI and DMEM media respectively. The next day, media was replaced with different compounds (10 μM)/C4 (various conc.)/1 μM C4/1 μM C4+50 μM Chloroquine containing media, as appropriate in different experiments. Cells were then infected with P. bergehi/PfUIS3@Pb parasites and analysed by flow cytometry at 2 h/24 h post infection. DMSO was used as control and Primaquine was used as the positive control. For flow cytometry, infected cells were trypsinized and resuspended in 300 μl of media. 50 μl of each sample were analysed on BD Accuri C6 as described in Hanson et al. Data were analysed using FlowJo software.
# The IC50 for C4 in P. berghei ANKA-infected and PfUIS3@Pb-infected cells at 24 h. Post-infection was 93.3 nM and 188.2 nM, respectively. To analyze C4 dose-dependent effect, media were replaced with DMSO (0.0001%)/C4 (various conc.)-containing media. After 2 h, cells were infected with luciferase-expressing P. berghei sporozoites (10,000/well) and processed for Luciferase assay at 24 h post-infection. Flow cytometry was used to determine EEF counts.
# [4] = test system: PfUIS3@Pb; assay: PfUIS3@Pb infection of Huh7 cells (flow cytometry EEF count); assay type: cell-based, P. berghei expressing P. falciparum UIS3; details: 24 h post-infection
# Source text: The following two Plasmodium parasite strains were used in the PHS: i) the rodent wild-type (WT) GFP expressing P. berghei ANKA parasite strain (259cl2, obtained from the Leiden Malaria Research Group); and ii) the parasite line, PfUIS3@Pb, created by inserting the gene encoding P. falciparum UIS3 with an added a 2 HA tag (UIS3-HA) into the P. berghei parasite (507cl1, obtained from the Leiden Malaria Research Group) at the UIS3 locus under the control of native 5′ and 3′ regulatory sequences. More particularly, to replace the P. berghei UIS3 open reading frame (ORF) with UIS3 ORF of P. falciparum, a double crossover recombination was performed as described in FIG. 2A. Transfection was carried out by electroporation of purified schizonts as previously described. […]
# as §1, with “GFP). […]” for “GFP).”
# [5] = test system: P. berghei ANKA; assay: Immunofluorescence microscopy of EEF number and size, P. berghei-infected Huh7 cells; assay type: cell-based; details: 1 μM
# Procedure: (§3) To assess C4 effect on EEF number and size, Huh7 cells were plated on glass coverslips (40,000/cover slip), treated with 1 μM C4 or 0.0001% DMSO (control) and after 2 h infected with P. berghei/PfUIS3@Pb sporozoites (40,000/cover slip). Huh7 cells (obtained from ATCC) were cultured under standard conditions in RPMI 1640 and DMEM medium (Gibco Invitrogen) respectively supplemented with 10% FCS, 1% glutamine, 1% non-essential amino acids (RPMI 1640), 1% penicillin/streptomycin, and 1% Hepes (RPMI 1640).
# (§4) To characterize PfUIS3@Pb parasite line, Huh7 cells were seeded on cover slips as above and infected with WT (P. berghei ANKA (507cl1)/PfUIS3@Pb sporozoites (40,000/cover slip). After 24 h, cells were fixed in 4% paraformaldehyde (ChemCruz) for 15 min at room temperature (RT), permeabilized/blocked (PBS, 0.1% Triton X-100, 1% BSA) for 1 h at RT and incubated with primary antibodies (diluted in blocking solution) for overnight at 4° C. Cells were then washed with PBS, incubated with AlexaFluor-conjugated secondary antibodies (Jackson ImmunoResearch Laboratories) and Hoechst 33342 (Invitrogen) for 1 h at RT and washed again. The coverslips were mounted with Fluoromount (SouthernBiotech). […] GFP signal was detected using AlexaFluor 488 conjugated anti GFP (rabbit polyclonal, Invitrogen, A-21311, 1:500) antibody. […] All images were processed and analysed using ImageJ.
# [6] = test system: P. berghei; assay: P. berghei infection in Atg5+/+ and Atg5-/- mouse embryonic fibroblasts; assay type: cell-based; details: 10 μM
# Procedure: Data represent means±SEM (n=3). Statistical significance was assessed using the unpaired two-tailed t-test. ns: non-significant, **** P<0.0001.
# To test the hypothesis that high-affinity binding of C4 to the UIS3-LC3 complex could interfere with the function of the UIS3-LC3 complex to cause a decrease Plasmodium infection by interfering with the parasite's ability to evade host cell autophagy, genetic and chemicals tools were used to assess the anti-parasitic activity of C4 in autophagy-competent and autophagy-deficient cells.
# MEFs used in these studies were obtained from the Riken BioResource Research Center (Atg5^+/+ (RCB2710) and Atg5^−/− (RCB2711). (Kuma et al.) MEFs were cultured in DMEM supplemented as described above for Huh7 cells. MEFs were validated through quantitative reverse transcription PCR.
# [7] = test system: P. berghei; assay: Sporozoite invasion of Huh7 cells, EEFs at 2 h post-infection by flow cytometry; assay type: cell-based; details: 1 μM, added 2 h before infection
# Procedure: FIG. 5E is a bar graph showing the effect of 1 μM C4 on P. berghei numbers in Huh7 cells as quantified by number of EEFs at 2 h post-infection. C4 was added to the cells 2 h before infection. EEFs were quantitated using flow cytometry. Data represent means±SEM (n=3). Non-parametric two-tailed Mann-Whitney test was used to compare the effect of DMSO control and C4. ns: non-significant.
# as §2
# [8] = test system: PfUIS3@Pb; assay: Immunofluorescence microscopy of EEF number and size, PfUIS3@Pb-infected Huh7 cells; assay type: cell-based, P. berghei expressing P. falciparum UIS3; details: 1 μM
# Procedure: as §3, §4
# [9] = target: UIS3-LC3 complex (Plasmodium falciparum, UniProt Q8IEU1); assay: Isothermal calorimetry (ITC), C4 titrated into saturated solution of UIS3 with LC3; assay type: binding, P. falciparum
# Procedure: ITC experiments were performed using MicroCal-ITC 200 (GE healthcare) at 25° C. The data were analyzed using MicroCal ITC-origin analysis software based on one-site binding reaction. For direct interaction studies, a 10 μM concentration of pfUIS3 was titrated against 0.100 μM of LC3. For competition assay, a saturated solution of UIS3 with LC3 was titrated against 100 μM of C4. C4 was resuspended in the same final buffer (with 2% DMSO) in which UIS3 and LC3 was dissolved.
# [10] = test system: HeLa cells; assay: Starvation-induced autophagy in HeLa cells, p62 immunoblot; assay type: cell-based; details: 1 μM for 24 h, then EBBS amino-acid starvation 7 h
# Procedure: FIG. 8B is a bar graph showing the p62 levels before and after amino acid starvation were calculated as the ratio of p62 to y tubulin (loading control). Data represent means±SEM (n=2). Statistical significance was assessed using the unpaired two-tailed t-test. ns: non-significant.
# As C4 acts on a protein-protein interaction at the host-parasite interface, the effect of C4 administration on host cell normal autophagy activity was determined. To that end, autophagy was induced in HeLa cells in the presence and absence of C4.
# To perform the foregoing study, HeLa cells (ATCC), which had been maintained under standard culture conditions in DMEM medium supplemented with 10% FCS, 1% glutamine, 1% penicillin/streptomycin, were treated with 1 μM C4 or 0.0001% DMSO (control) for 24 h, and then changed from normal growth medium to EBBS to induce amino-acid starvation dependent autophagy. After 7 h, cells were collected in lysis buffer (50 mM NaCl, 50 mM Tris-Cl pH 8, 5 mM EDTA pH 8, 1% Triton X-100, protease inhibitor) and analysed by western blot using the following antibodies: p62 (rabbit polyclonal, Sigma-Aldrich, P0067, 1:1000) and gamma-tubulin (mouse monoclonal, Sigma-Aldrich, T5326, 1: 10,000). p62 levels were measured by quantifying the ratio of p62 to tubulin signals using Image Lab.
# [11] = Solubility in DMSO; assay type: physicochemical
# [12] = target: Microtubule-associated protein 1A/1B-light chain 3 (LC3), purified recombinant (UniProt Q9GZQ8); assay: ITC, 100 µM LC3 titrated into 10 µM PfUIS3, 25 °C, one-site model
compound,measurement,setting,value
CCN(CC)CCCC(C)Nc1ccnc2cc(Cl)ccc12 (stereo not shown) [Chloroquine],Reversal of anti-parasitic effect of C4 (EEF number),[1],can be reverted
same,Reversal of anti-parasitic effect of C4 (EEF number),[1]; listed as chloroquine,rescued the C4 effect
same,Reversal of anti-parasitic effect of C4 (EEF number),[2],can be reverted
same,Reversal of anti-parasitic effect of C4 (EEF number),[2]; listed as chloroquine,rescued the C4 effect
N#Cc1ccc(C(=O)N2CCN(Cc3ccc(-c4noc(-c5cccc(C(F)(F)F)c5)n4)cc3)CC2)cc1 [Compound C4],Effect on infection over time,"[3]; 1 μM, from very early time-point, maintained through at least 48 h post-infection",decreased infection
same,Parasite load / decrease in infection in phenotypic screen,"[3]; 10 μM, added 2 h before infection, 24 h post-infection, Huh7 cells",most effective compound; also recorded: highest decrease in infection
same,IC50,"[3]; Plasmodium berghei, Huh-7, P. berghei ANKA-infected Huh7 cells, 24 h post-infection, luciferase assay",93.3 nM
same,Number of EEFs / decrease in infection in phenotypic screen,"[4]; 10 μM, added 2 h before infection, Huh7 cells",most effective compound; also recorded: highest decrease in infection
same,IC50,"[4]; PfUIS3@Pb-infected Huh7 cells, flow cytometry",188 nM
same,"Parasite development, as measured by parasite area",[5],modest impact
same,Number of infected cells (microscopy),[5]; added 2 h before infection,significant decrease
same,Reduction in infection in Atg5−/− MEFs,[6]; autophagy-deficient cells,did not cause any reduction in infection
same,Impact on infection in Atg5+/+ MEFs,[6]; control cells,comparable to that observed for infected Huh7 cells
same,Effect on sporozoite invasion of host cells,[7],did not affect
same,"Parasite development, as measured by parasite area",[8],modest impact
same,Number of infected cells (microscopy),[8]; added 2 h before infection,significant decrease
same,Affinity to UIS3-LC3 complex relative to direct UIS3-LC3 interaction,[9],10 fold
same,Kd,"[9]; 25° C., one-site binding model, 100 μM C4 into UIS3 saturated with LC3",241 ± 1.1 nM
same,Host cell response to exogenous autophagy stimulus (p62 levels),[10],does not cause any impairment
Cc1c/c(=N\C(=O)N2CCC3(CC2)OCCO3)nc2c3ccccc3oc(O)c1-2 [Compound C8],Solubility in DMSO,[11],insolubilities in DMSO
Cc1ccc(C)c(NC(=O)N2CCN(c3ccc(-c4noc(C5CCCCC5)n4)cc3)CC2)c1 [Compound C9],Solubility in DMSO,[11],insolubilities in DMSO
"Plasmodium falciparum Upregulated in infective sporozoites 3 (UIS3), purified recombinant myc-UIS3",Kd,[12],2150 nM
